We go through 18 compounds from patent publication US8563714B2, “Bridged spiro [2.4] heptane derivatives as ALX receptor and/or FPRL2 agonists” (Actelion Pharmaceuticals Ltd., priority 2009, dated 2013).

Each structure is given as a SMILES string.

As usually defined, the EC50 is the concentration that produces a half-maximal response.

The target of one experiment is T1, human ALX receptor (Homo sapiens, UniProt P25090).
T1 construct: expressed in transfected cells; host or cells: HEK293 (HEK293-hALXR-Gα16)
T1 sequence (P25090 1-351): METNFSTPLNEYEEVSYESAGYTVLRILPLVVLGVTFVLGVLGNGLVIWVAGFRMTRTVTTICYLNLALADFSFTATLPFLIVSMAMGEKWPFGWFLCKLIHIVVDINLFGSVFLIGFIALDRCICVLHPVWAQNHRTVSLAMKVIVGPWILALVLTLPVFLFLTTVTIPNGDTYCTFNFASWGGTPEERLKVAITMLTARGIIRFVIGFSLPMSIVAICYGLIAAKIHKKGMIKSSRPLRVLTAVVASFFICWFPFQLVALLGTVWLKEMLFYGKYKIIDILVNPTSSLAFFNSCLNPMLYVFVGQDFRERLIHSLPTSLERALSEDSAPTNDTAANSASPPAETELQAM
Nature of the experiment: Intracellular calcium measurements (FLIPR), agonistic activity in HEK293-hALXR-Gα16 cells. In kind it is cell-based. Particulars: Fluo-4 calcium FLIPR, normalized to WKYMVm 10 nM. The protocol:
(§1) The ALX receptor and FPRL2 agonistic activities of the compounds of formula (I) are determined in accordance with the following experimental method.
(§2) Intracellular Calcium Measurements:
Cells expressing recombinant human ALX receptor and the G-protein Gα16 (HEK293-hALXR-Gα16) were grown to 80% confluency in Growing Medium (GM). Cells were detached from culture dishes with a cell dissociation buffer (Invitrogen, 13151-014), and collected by centrifugation at 1,000 rpm at rt for 5 min in Assay Buffer (AB) (equal parts of Hank's BSS (Gibco, 14065-049) and DMEM without Phenol Red (Gibco, 11880-028)). After 60 min incubation at 37° C. under 5% CO2 in AB supplemented with 1 μM Fluo-4 (AM) (Invitrogen, F14202), and 20 mM HEPES (Gibco, 15630-056), the cells were washed and resuspended in AB. They were then seeded onto 384-well FLIPR assay plates (Greiner, 781091) at 50′000 cells in 70 μl per well and sedimented by centrifugation at 1,000 rpm for 1 min. Stock solutions of test compounds were made up at a concentration of 10 mM in DMSO, and serially diluted in AB to concentrations required for activation dose response curves. WKYMVm (Phoenix Peptides) was used as a reference agonist. FLIPR384 or FLIPR Tetra instruments (Molecular Devices) were operated according to the manufacturer's standard instructions, adding 4 μl of test compound dissolved at 10 mM in DMSO and diluted prior to the experiment in assay buffer to obtain the desired final concentration. Changes in fluorescence were monitored before and after the addition of test compounds at lex=488 nm and lem=540 nm. Emission peak values above base level after compounds addition were exported after base line subtraction. Values were normalized to high-level control (WKYMVm compound, 10 nM final concentration) after subtraction of the base line value (AB addition).
On the technique in general: Calcium flux is commonly read through the fluorescence of an indicator in the cells.

The target of the next experiment is T2, human FPRL2 (Homo sapiens, UniProt P25089).
T2 construct: expressed in transfected cells; host or cells: HEK293 (HEK293-hFPRL2-Gα16)
T2 sequence (P25089 1-353): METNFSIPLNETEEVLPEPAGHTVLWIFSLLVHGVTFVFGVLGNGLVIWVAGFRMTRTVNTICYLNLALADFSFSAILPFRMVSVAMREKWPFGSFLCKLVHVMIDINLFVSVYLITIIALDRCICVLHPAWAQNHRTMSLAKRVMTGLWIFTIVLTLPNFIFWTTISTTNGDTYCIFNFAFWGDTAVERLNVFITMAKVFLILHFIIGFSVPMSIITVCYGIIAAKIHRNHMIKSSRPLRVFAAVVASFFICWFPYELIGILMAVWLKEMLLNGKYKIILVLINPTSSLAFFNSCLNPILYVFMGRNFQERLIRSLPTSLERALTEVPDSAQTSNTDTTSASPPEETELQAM
Nature of the experiment: Intracellular calcium measurements (FLIPR), agonistic activity in HEK293-hFPRL2-Gα16 cells. In kind it is cell-based. Particulars: Fluo-4 calcium FLIPR, normalized to GLY14-Humanin 100 nM. As to the method:
as §1, §2
Cells expressing recombinant human FPRL2 and the G-protein Gα16 (HEK293-hFPRL2-Gα16) were grown to 80% confluency in Growing Medium (GM). […] Stock solutions of test compounds were made up at a concentration of 10 mM in DMSO, and serially diluted in AB to concentrations required for activation dose response curves. Gly14-Humanin (Humanin peptide with replacement of Serine by Glycine at position 14, Phoenix Peptides) was used as a reference agonist. FLIPR384 or FLIPR Tetra instruments (Molecular Devices) were operated according to the manufacturer's standard instructions, adding 4 μl of test compound dissolved at 10 mM in DMSO and diluted prior to the experiment in assay buffer to obtain the desired final concentration. Changes in fluorescence were monitored before and after the addition of test compounds at lex=488 nm and lem=540 nm. Emission peak values above base level after compounds addition were exported after base line subtraction. Values were normalized to high-level control (GLY14-Humanin compound, 100 nM final concentration) after subtraction of the base line value (AB addition).

With `O=C(Nc1ncc(Br)s1)C1C(C(=O)NC2CCC(CO)CC2)C2CCC1C21CC1` (single isomer, unassigned) [Example 411], the concentration for a half-maximal effect (EC50) is 61 nM at human ALX receptor and 6520 nM on human FPRL2.

Turning to `COCCC(=O)NC[C@H]1[C@H](C(=O)Nc2ccc(Br)cc2)[C@@H]2C=C[C@H]1C21CC1` (racemic) [Example 163, (5R*)—N^5-(4-Bromo-phenyl)-(6R*)-6-[(3-methoxy-propionylamino)-methyl]-(4S*,7R*)-[4,7-ethenylene-spiro[2.4]heptane]-5-carboxamide], the EC50 was 72 nM at human ALX receptor and 5680 nM at human FPRL2.

Turning to `CC(=O)c1cccc(CNC(=O)[C@H]2[C@H](C(=O)NCCCCN3CCCC3)[C@H]3C=C[C@@H]2C32CC2)c1` (racemic) [Example 359, (5R*)—N^5-(3-Acetylphenyl-methyl)-(6R*)—N^6-(4-pyrrolidino-butyl)-(4S*,7R*)-[4,7-ethenylene-spiro[2.4]heptane]-5,6-dicarboxamide], the values for the half-maximal effective concentration (EC50) on human ALX receptor and on human FPRL2 were 8350 nM and 359 nM, respectively.

For `CCN(CC)CCCCNC(=O)[C@H]1[C@H](C(=O)Nc2ncc(Br)s2)[C@@H]2C=C[C@H]1C21CC1` (racemic) [Example 270, (5R*)—N^5-(5-Bromothiazol-2-yl)-(6R*)—N^6-(4-diethylamino-butyl)-(4S*,7R*)-[4,7-ethenylene-spiro[2.4]heptane]-5,6-dicarboxamide], the 50% effective concentration (EC50) amounted to 54 nM on human ALX receptor and 396 nM at human FPRL2.

Regarding `CC(NC(=O)C1C(C(=O)Nc2ccc(Br)cc2)C2C=CC1C21CC1)C(=O)N1CCCCC1` (mixture of isomers) [Example 82, (5R*)—N^5-(4-Bromophenyl)-(6R*)—N^6-(1-piperidin-1-yl-propan-1-on-2-yl)-(4S*,7R*)-[4,7-ethenylene-spiro[2.4]heptane]-5,6-dicarboxamide], the EC50 is 118 nM on human ALX receptor and 6590 nM on human FPRL2.

Turning to `O=C(NCC1CCCNC1)[C@H]1[C@H](C(=O)Nc2ncc(Br)s2)[C@@H]2CC[C@H]1C21CC1` (stereo partly drawn) [Example 418, (5R)—N^5-(5-Bromothiazol-2-yl)-(6R)—N^6-[(piperidin-3-yl)-methyl]-(4S,7R)-[4,7-ethylene-spiro[2.4]heptane]-5,6-dicarboxamide], the half-maximal effective concentration (EC50) at human ALX receptor stood at 0.45 nM; on human FPRL2, 339 nM.

On to `CC(C)(C)c1cc(NC(=O)[C@H]2[C@H](C(=O)NCCCCN3CCCC3)[C@H]3C=C[C@@H]2C32CC2)no1` (racemic) [Example 145, (5R*)—N^5-(5-tert-Butyl-isoxazol-3-yl)-(6R*)—N^6-(4-pyrrolidin-1-yl-butyl)-(4S*,7R*)-[4,7-ethenylene-spiro[2.4]heptane]-5,6-dicarboxamide], for which the EC50 turned out to be 3650 nM at human ALX receptor and 647 nM on human FPRL2.

For `O=C(NCCCCN1CCCC1)[C@H]1[C@H](C(=O)NCc2ccc(Br)cc2F)[C@@H]2CC[C@H]1C21CC1` [Example 318, (5R)—N^5-(4-Bromo-2-fluorophenyl-methyl)-(6R)—N^6-(4-pyrrolidino-butyl)-(4S,7R)-[4,7-ethylene-spiro[2.4]heptane]-5,6-dicarboxamide], the concentration for a half-maximal effect (EC50) at human ALX receptor worked out at 13 nM; on human FPRL2 it was 18 nM.

In the case of `CC(C)CCN1CCC(NC(=O)[C@H]2[C@H](C(=O)NCCc3ccc(Cl)cc3)[C@@H]3C=C[C@H]2C32CC2)CC1` [Example 392, (5R)—N^5-(2-(4-Chlorophenyl)ethyl)-(6R)—N^6—(N-isopentyl-piperidin-4-yl)-(4S,7R)-[4,7-ethenylene-spiro[2.4]heptane]-5,6-dicarboxamide], the EC50 at human ALX receptor is 10400 nM; at human FPRL2 it was 20 nM.

For `CN1CCN(CCCNC(=O)[C@H]2[C@H](C(=O)Nc3ccc(Br)cc3)[C@@H]3C=C[C@H]2C32CC2)CC1` (racemic) [Example 43, (5R*)—N^5-(4-Bromophenyl)-(6R*)—N^6-(3-(4-methyl-piperazin-1-yl)-propyl)-(4S*,7R*)-[4,7-ethenylene-spiro[2.4]heptane]-5,6-dicarboxamide], the EC50 on human ALX receptor was 9.5 nM; on human FPRL2 it was 925 nM.

Regarding `CC(CCCNC(=O)[C@H]1[C@H](C(=O)Nc2ccc(Br)cc2)[C@@H]2C=C[C@H]1C21CC1)N1CCCC1` (stereo partly drawn) [Example 398, (5R)—N^5-(4-Bromophenyl)-(6R)—N^6-(4-(pyrrolidin-1-yl)pentyl)-(4S,7R)-[4,7-ethenylene-spiro[2.4]heptane]-5,6-dicarboxamide], the EC50 is 1.8 nM at human ALX receptor and 7510 nM on human FPRL2.

In the case of `O=C(Nc1ccc(Br)cc1)C1C(C(=O)NC2CCCNC2)C2C=CC1C21CC1` (mixture of isomers) [Example 26, (5R*)—N^5-(4-Bromophenyl)-(6R*)—N^6-(piperidin-3-yl)-(4S*,7R*)-[4,7-ethenylene-spiro[2.4]heptane]-5,6-dicarboxamide], the half-maximal effective concentration (EC50) at human ALX receptor stood at 4.2 nM; on human FPRL2, 744 nM.

Consider `NCC1CCC(NC(=O)C2C(C(=O)Nc3ccc(Br)cc3)C3C=CC2C32CC2)CC1` (single isomer, unassigned) [Example 420], for which the concentration giving a half-maximal response (EC50) on human ALX receptor turned out to be 0.13 nM; at human FPRL2 it was 1150 nM.

`N#CCNC(=O)[C@H]1[C@H](C(=O)Nc2ccc(Br)cc2)[C@@H]2C=C[C@H]1C21CC1` (racemic) [Example 36, (5R*)—N^5-(4-Bromophenyl)-(6R*)—N^6-(cyano-methyl)-(4S*,7R*)-[4,7-ethenylene-spiro[2.4]heptane]-5,6-dicarboxamide]: the results for the EC50 on human ALX receptor and at human FPRL2 were 6.7 nM and 11500 nM, respectively.

Regarding `O=C(NCCCCN1CCCC1)[C@H]1[C@H](C(=O)Nc2ccc(Cl)nc2)[C@@H]2C=C[C@H]1C21CC1` [Example 289, (5R)—N^5-(2-Chloro-pyridin-5-yl)-(6R)—N^6-(4-pyrrolidino-butyl)-(4S,7R)-[4,7-ethenylene-spiro[2.4]heptane]-5,6-dicarboxamide], the concentration giving a half-maximal response (EC50) at human ALX receptor came to 1.6 nM; at human FPRL2, 214 nM.

As to `O=C(NCCO)[C@H]1[C@H](C(=O)Nc2ccc(Br)cc2)[C@@H]2C=C[C@H]1C21CC1` (racemic) [Example 34, (5R*)—N^5-(4-Bromophenyl)-(6R*)—N^6-(2-hydroxy-ethyl)-(4S*,7R*)-[4,7-ethenylene-spiro[2.4]heptane]-5,6-dicarboxamide], the EC50 amounted to 6.1 nM on human ALX receptor and 16100 nM on human FPRL2.

As for `O=C(NC1CCNCC1)[C@H]1[C@H](C(=O)Nc2ncc(Br)s2)[C@@H]2CC[C@H]1C21CC1` [Example 330, (5R)—N^5-(5-Bromo-thiazol-2-yl)-(6R)—N^6-(piperidin-4-yl)-(4S,7R)-[4,7-ethylene-spiro[2.4]heptane]-5,6-dicarboxamide], the EC50 at human ALX receptor was determined as 24 nM; on human FPRL2 it was 4420 nM.

Turning to `CC(C)(C)OC(=O)N1CCC(NC(=O)C2C(C(=O)Nc3ccc(Br)cc3)C3C=CC2C32CC2)C1` (mixture of isomers) [Example 14, (5R*)—N^5-(4-Bromophenyl)-(6R*)—N^6-(N-tert-butoxycarbonyl-pyrrolidin-3-yl)-(4S*,7R*)-[4,7-ethenylene-spiro[2.4]heptane]-5,6-dicarboxamide], the figures for the half-maximal effective concentration (EC50) on human ALX receptor and at human FPRL2 were 1.2 nM and 1690 nM, respectively.
